Test results as given in US10105357B2, “Indication of antibiotic drugs for preparation of cancer inhibition pharmaceutical composition” (LAUNX BIOMEDICAL CO., LTD., priority 2014, dated 2018).
Structures can show the parent of a compound that is named as a salt. Where two headings read alike, the source gives them in different places.

How the values were obtained:
[1] = test system: HI650 (Lung Adenocarcinoma); experiment: Cell viability analysis, lung cancer HI650; type: cell-based, human; settings: Homo sapiens, NCI-H1650, 72 h
U-2OS = experiment: Cell viability analysis, osteosarcoma U-2OS; type: cell-based, human; settings: Homo sapiens, U2OS, 72 h, read-out: The results of antibiotic drug inhibiting cancer cell lines (cell viability analysis), U2OS
[2] = test system: HepG2 (Hepatocellular Carcinoma); experiment: Cell viability analysis, hepatic cancer HepG2; type: cell-based, human; settings: Homo sapiens, HepG2, 72 h
[3] = test system: HeLa (Cervix Adenocarcinoma); experiment: Cell viability analysis, cervical cancer HeLa; type: cell-based, human; settings: Homo sapiens, HeLa, 72 h
[4] = test system: BCC (basal cell carcinoma); experiment: Cell viability analysis, skin cancer BCC; type: cell-based, human; settings: Homo sapiens, 72 h, read-out: The results of antibiotic drug inhibiting cancer cell lines (cell viability analysis), BCC
NIH: OVCAR-3 = experiment: Cell viability analysis, ovarian cancer NIH: OVCAR-3; type: cell-based, human; settings: Homo sapiens, OVCAR-3, 72 h, read-out: The results of antibiotic drug inhibiting cancer cell lines (cell viability analysis), NIH-OVCAR-3
AsPC-1 = experiment: Cell viability analysis, pancreatic cancer AsPC-1; type: cell-based, human; settings: Homo sapiens, ASPC1, 72 h, read-out: The results of antibiotic drug inhibiting cancer cell lines (cell viability analysis), AsPC-1
[5] = test system: A549 (Lung Adenocarcinoma); experiment: Cell viability analysis, lung cancer A549; type: cell-based, human; settings: Homo sapiens, A549, 72 h
[6] = test system: HCT116 (p53+) (Colorectal Carcinoma)
BxPC-3 = experiment: Cell viability analysis, pancreatic cancer BxPC-3; type: cell-based, human; settings: Homo sapiens, BXPC-3, 72 h, read-out: The results of antibiotic drug inhibiting cancer cell lines (cell viability analysis), BxPC-3
[7] = test system: C-33A (Cervical carcinoma); experiment: Cell viability analysis, cervical cancer C-33A; type: cell-based, human; settings: Homo sapiens, C-33-A, 72 h, read-out: The results of antibiotic drug inhibiting cancer cell lines (cell viability analysis), C-33A
[8] = test system: A375 (Amelanotic Melanoma); experiment: Cell viability analysis, skin cancer A375; type: cell-based, human; settings: Homo sapiens, A-375, 72 h
[9] = test system: PC3 (p53−) (Prostate Adenocarcinoma); experiment: Cell viability analysis, prostate cancer PC3; type: cell-based, human; settings: Homo sapiens, 72 h
[10] = test system: MDA-MB-231 (Mammary Gland, Adenocarcinoma); experiment: Cell viability analysis, breast cancer MDA-MB-231; type: cell-based, human; settings: Homo sapiens, MDA-MB-231, 72 h, read-out: The results of antibiotic drug inhibiting cancer cell lines (cell viability analysis), MDA-MB231
[11] = test system: HL-60 (Acute Promyelocytic Leukemia); experiment: Cell viability analysis, leukemia HL-60; type: cell-based, human; settings: Homo sapiens, HL-60, 72 h, read-out: cell viability (survival rate), HL-60, drug 10 μM, 72 hours, WST-1, OD450 nm
TOV-21G = experiment: Cell viability analysis, ovarian cancer TOV-21G; type: cell-based, human; settings: Homo sapiens, TOV21G, 72 h, read-out: The results of antibiotic drug inhibiting cancer cell lines (cell viability analysis), TOV-21G
[12] = test system: TSGH-8301 (Urinary Bladder Carcinoma); experiment: Cell viability analysis, bladder cancer TSGH-8301; type: cell-based, human; settings: Homo sapiens, 72 h
cancer cell lines = experiment: Cell viability analysis (WST-1) on cancer cell lines; type: cell-based, human; settings: drug 10 μM, 72 hours, WST-1; Table 3
[13] = test system: MCF7 (Mammary Gland, Adenocarcinoma); experiment: Cell viability analysis, breast cancer MCF7; type: cell-based, human; settings: Homo sapiens, MCF7, 72 h
[14] = test system: Hep3B (hepatocellular carcinoma); experiment: Cell viability analysis, hepatic cancer Hep3B; type: cell-based, human; settings: Homo sapiens, Hep3B, 72 h, read-out: The results of antibiotic drug inhibiting cancer cell lines (cell viability analysis), Hep3B
[15] = test system: MKN-45 (Gastric Adenocarcinoma); experiment: Cell viability analysis, gastric cancer MKN-45; type: cell-based, human; settings: Homo sapiens, MKN-45, 72 h
[16] = test system: 786-O (Renal adenocarcinoma); experiment: Cell viability analysis, renal cancer 786-O; type: cell-based, human; settings: Homo sapiens, 786-0, 72 h, read-out: The results of antibiotic drug inhibiting cancer cell lines (cell viability analysis), 786-O
[17] = test system: LoVo (Colorectal Adenocarcinoma); experiment: Cell viability analysis, colon cancer LoVo; type: cell-based, human; settings: Homo sapiens, LoVo, 72 h
[18] = test system: SAS (Tongue squamous cell carcinoma); experiment: Cell viability analysis, tongue cancer SAS; type: cell-based, human; settings: Homo sapiens, 72 h, read-out: The results of antibiotic drug inhibiting cancer cell lines (cell viability analysis), SAS
[19] = test system: AGS (Gastric Adenocarcinoma); experiment: Cell viability analysis, gastric cancer AGS; type: cell-based, human; settings: Homo sapiens, 72 h
T24 = experiment: Cell viability analysis, bladder cancer T24; type: cell-based, human; settings: Homo sapiens, T-24, 72 h, read-out: The results of antibiotic drug inhibiting cancer cell lines (cell viability analysis), T24
[20] = read-out: The results of antibiotic drug inhibiting cancer cell lines (cell viability analysis), H1650, H1650, repeated experiment
[21] = read-out: The results of antibiotic drug inhibiting cancer cell lines (cell viability analysis), HeLa, repeated experiment
[22] = read-out: The results of antibiotic drug inhibiting cancer cell lines (cell viability analysis), A549, A549, repeated experiment
[23] = read-out: The results of antibiotic drug inhibiting cancer cell lines (cell viability analysis), PC-3, PC-3, repeated experiment
[24] = read-out: The results of antibiotic drug inhibiting cancer cell lines (cell viability analysis), TSGH-8301, TSGH-8301, repeated experiment
[25] = read-out: The results of antibiotic drug inhibiting cancer cell lines (cell viability analysis), MCF-7, MCF-7, repeated experiment
[26] = read-out: The results of antibiotic drug inhibiting cancer cell lines (cell viability analysis), MKN-45, MKN-45, repeated experiment
[27] = read-out: The results of antibiotic drug inhibiting cancer cell lines (cell viability analysis), LoVo, repeated experiment
[28] = read-out: The results of antibiotic drug inhibiting cancer cell lines (cell viability analysis), AGS, repeated experiment

| SMILES | viability at 10 µM [1, 20] [%] | viability at 10 µM (U-2OS) [%] | viability at 10 µM [3, 21] [%] | viability at 10 µM [4] [%] | viability at 10 µM (AsPC-1) [%] | viability at 10 µM [5, 22] [%] | viability [6] [%] | viability at 10 µM (BxPC-3) [%] | viability at 10 µM [7] [%] | viability at 10 µM [9, 23] [%] | viability at 10 µM [10] [%] | viability at 10 µM (TOV-21G) [%] | viability at 10 µM [12, 24] [%] | inhibition effect on different cancer cell lines (cancer cell lines) | viability at 10 µM [13, 25] [%] | viability at 10 µM [14] [%] | viability at 10 µM [15, 26] [%] | viability at 10 µM [16] [%] | viability at 10 µM [17, 27] [%] | viability at 10 µM [18] [%] | other results |
| --- | --- | --- | --- | --- | --- | --- | --- | --- | --- | --- | --- | --- | --- | --- | --- | --- | --- | --- | --- | --- | --- |
| CC(=O)NC[C@H]1CN(c2ccc(N3CCOCC3)c(F)c2)C(=O)O1 [Linezolid (Zyvox), Linezolid] | 95.6 | 99.8 | 89.2 | 67.2 | 92.6 | 82.1 | 107 | 95.6 | 132 | 115 | 96.2 | 78.2 | 99.7 | significant inhibition effect | 73.1 | 99.9 | 137 | 98.6 | 89.5 | 84 | viability at 10 µM ([1]; read-out: cell viability (survival rate), H1650, drug 10 μM, 72 hours, WST-1, OD450 nm): 51.3%; viability at 10 µM ([2]; read-out: The results of antibiotic drug inhibiting cancer cell lines (cell viability analysis), HepG2, HepG2, repeated experiment): 107%; viability at 10 µM ([2]; read-out: cell viability (survival rate), HepG2, drug 10 μM, 72 hours, WST-1, OD450 nm): 91.3%; viability at 10 µM ([3]; read-out: cell viability (survival rate), HeLa, drug 10 μM, 72 hours, WST-1, OD450 nm): 93.7%; viability at 10 µM (NIH: OVCAR-3): 110%; viability at 10 µM ([5]; read-out: cell viability (survival rate), A549, drug 10 μM, 72 hours, WST-1, OD450 nm): 40.2%; viability at 10 µM ([8]; read-out: The results of antibiotic drug inhibiting cancer cell lines (cell viability analysis), A375, A375, repeated experiment): 82.8%; viability at 10 µM ([8]; read-out: cell viability (survival rate), A375, drug 10 μM, 72 hours, WST-1, OD450 nm): 57.6%; viability at 10 µM ([9]; read-out: cell viability (survival rate), PC3, drug 10 μM, 72 hours, WST-1, OD450 nm): 67%; viability at 10 µM [11]: 129%; viability at 10 µM ([12]; read-out: cell viability (survival rate), TSGH, drug 10 μM, 72 hours, WST-1, OD450 nm): 58.2%; viability at 10 µM ([13]; read-out: cell viability (survival rate), MCF7, drug 10 μM, 72 hours, WST-1, OD450 nm): 66.3%; viability at 10 µM ([15]; read-out: cell viability (survival rate), MKN-45, drug 10 μM, 72 hours, WST-1, OD450 nm): 65.9%; viability at 10 µM ([17]; read-out: cell viability (survival rate), LoVo, drug 10 μM, 72 hours, WST-1, OD450 nm): 91%; viability at 10 µM [19, 28]: 104%; viability at 10 µM ([19]; read-out: cell viability (survival rate), AGS, drug 10 μM, 72 hours, WST-1, OD450 nm): 70.8% |
| CN(C)CCCN1c2ccccc2CCc2ccc(Cl)cc21 [Clomipramine hydrochloride (Anafranil), Clomipramine hydrochloride] | 103 | 58.4 | 113 | 124 | 77.2 | 86.4 | 137 | 78.3 | 118 | 91.2 | 117 | 118 | 139 | significant inhibition effect | 65.9 | 135 | 125 | 80.3 | 65.7 | 51.6 | viability at 10 µM (T24): 109%; viability at 10 µM [19, 28]: 122% |
